# How the values were obtained:
# 6F11-mAb = experiment: icELISA with purified 6F11-mAb; assay type: binding, mouse; settings: for CR / IC50: 6F11-mAb; for CR: cross-reactivity relative to imidacloprid; for IC50: imidacloprid-OVA 10 µg/mL; for recognition by the antibody (6F11): in words
# Protocol: (§1) Procedures for the immunization, cell fusion and clone selection were similar to those described in our previous publications, and indirect non-competitive and competitive ELISAs were sequentially used for hybridoma screening. The generated mAb was purified by protein G from the ascitic fluid and then stored at −20 °C for further analysis. A mouse antibody isotyping kit was used to determine the isotypes of the mAbs.
# (§2) Checkerboard titration was carried out by icELISAs with serial dilutions of the antibody and coating antigen (imidacloprid-OVA). […] The specificity and sensitivity were determined by icELISAs. Briefly, the mixture of standards with different concentrations and equal volume of antibody was added into the reaction wells of pre-coated plates. Standard curves were fitted into a four-parameter logarithmic equation: Y = A2 + [(A1 − A2)/1 + (X/X0)^p], and the half-maximal inhibitory concentration (IC50, defined as the assay sensitivity, was used to calculate cross-reactivity rate(CR).
# (§3) Under the optimal working concentrations of 10 µg/mL for imidacloprid-OVA, icELISAs with high sensitivity to neonicotinoid pesticides and metabolites were established.
# 6F11-rAb [1] = experiment: icELISA with full-length recombinant 6F11-rAb; assay type: binding, mouse; settings: for CR: cross-reactivity relative to imidacloprid; for IC50: imidacloprid-OVA 10 µg/mL
# Protocol: Transient production in the HEK 293F suspension cells was performed as described. Briefly, cells were prepared with viable cell density around 1.5 × 10^6 cells/mL and viability above 95 % in 180 mL serum-free culture medium in 500 mL Nunc Erlenmeyer flasks and incubated at 37 °C in 5% CO2 atmosphere and shaken at 130 rpm in an orbital shaker for 2 h. A total of 90 μg of the plasmids (VH:VL = 2:3) mixed with transfection reagent were pre-warmed for 15 min and then transiently transfected into HEK 293F. After 5 days of incubation, the supernatant was collected and purified by protein G. The size of the purified full-length rAb was identified by SDS-PAGE.
# as §2, §3
# 6F11-rAb [2] = experiment: GNIS (gold lateral-flow immunosensing strip) assay based on 6F11-rAb; assay type: binding, mouse; settings: for limit detection of T-line disappearance (visual detection limit): normal visual detection; for IC50: with a strip reader
# Text: The preparation method for the conjugate of rAb-gold nanoparticles was based on a previous report. A colloid gold lateral-flow immunosensing strip consisted of three pads (glass fiber membrane, NC membrane and absorption membrane) using a one-sided adhesive polyvinyl chloride sheet as a support. The prepared imidaclothiz-OVA conjugate and goat anti-mouse IgG antibody were immobilized onto the NC membrane as the test line (T line) and control line (C line), respectively. For analysis, standard solutions at different concentrations were added to the 96-well microtiter plate, and then the strip was inserted into the well. After 15 min, the signal was observed using a portable reader (Helmen, Suzhou, China). Standard curves were gained by plotting the signal ratio of the T line to the C line (T/C) against the analyte concentration, and they were also fitted into the four-parameter logarithmic equation.
# The 6F11-rAb was used to establish a rapid and reliable GNIS assay, and the limit detection of T-line disappearance was 5 ng/mL for imidacloprid, clothianidin and imidaclothiz and over 100 ng/mL for thiacloprid, acetamiprid and nitenpyram, judged by normal visual detection (Figure 5). […] Therefore, imidacloprid, clothianidin and imidaclothiz, with better sensitivity, were further determined by spiking experiment.
# mAb 5C3 = experiment: icELISA with mAb 5C3 (hybridoma supernatant), coating antigen imidacloprid-OVA; assay type: binding, mouse; settings: for CR: mAb 5C3, cross-reactivity relative to imidacloprid; for IC50: mAb 5C3, hybridoma supernatant, icELISA
# Protocol: as §1, §2
# (§4) Moreover, sensitivity (IC50) and CR to eight neonicotinoids were assessed by icELISAs.
# mAb 6F11 = experiment: icELISA with mAb 6F11 (hybridoma supernatant), coating antigen imidacloprid-OVA; assay type: binding, mouse; settings: for CR: mAb 6F11, cross-reactivity relative to imidacloprid; for IC50: mAb 6F11, hybridoma supernatant, icELISA
# Protocol: as §1, §2, §4
# mAb 4B1 = experiment: icELISA with mAb 4B1 (hybridoma supernatant), coating antigen imidacloprid-OVA; assay type: binding, mouse; settings: for CR: mAb 4B1, cross-reactivity relative to imidacloprid; for IC50: mAb 4B1, hybridoma supernatant, icELISA
# Protocol: as §1, §2, §4
# [3] = system: anti-imidacloprid monoclonal antibody; set-up: method as in PMID 31862564; settings: anti-imidacloprid mAb, lateral-flow immunoassay; cited from earlier work
# mAb 1A5 = experiment: icELISA with mAb 1A5 (hybridoma supernatant), coating antigen imidacloprid-OVA; assay type: binding, mouse; settings: for CR: mAb 1A5, cross-reactivity relative to imidacloprid; for IC50: mAb 1A5, hybridoma supernatant, icELISA
# Protocol: as §1, §2, §4
# [4] = system: positive hybridoma clones; experiment: Dual-target icELISA hybridoma screening; assay type: binding, mouse; settings: analyte at 1 µg/mL, nine clones
# Protocol: as §1
# After cell fusion and the primary screening by non-competitive ELISAs, 37 positive wells of hybridomas giving the absorbance values higher than 0.5 were picked out and filled with fresh culture medium. On the next day, they were quickly rechecked by icELISAs to qualitatively test the ability of recognizing both imidacloprid and acetamiprid. […] Therefore, the top four broad-specific clones were selected and screened with imidacloprid and acetamiprid until stable hybridoma lines were obtained. Then the culture supernatants were collected for characterization of the four kinds of broad-specific mAbs.
# anti-imidaclothiz mAb = system: anti-imidaclothiz mAb; set-up: method as in PMID 21299253; settings: anti-imidaclothiz mAb-based ELISA; cited from earlier work
Structure (SMILES),CR (6F11-mAb),IC50 (6F11-mAb),CR (6F11-rAb [1]),IC50 (6F11-rAb [1]),limit detection of T-line disappearance (visual detection limit) (6F11-rAb [2]),CR (mAb 5C3),IC50 (mAb 5C3),CR (mAb 6F11),IC50 (mAb 6F11),CR (mAb 4B1),IC50 (mAb 4B1),CR (mAb 1A5),IC50 (mAb 1A5),IC50 (6F11-rAb [2]),further results
O=[N+]([O-])/C=C1\NCCN1Cc1ccc(Cl)nc1 [6-Cl-PMNI],132.9%,0.20 ng/mL,100.6%,0.36 ng/mL,,,,,,,,,,,
"C/C(=N\C#N)N(C)Cc1ccc(Cl)nc1 [Acetamiprid, acetamiprid]",4.5%,5.92 ng/mL,4.0%,9.04 ng/mL,over 100 ng/mL,0.4%,58.52 ng/mL,9.5%,6.24 ng/mL,3.1%,92.77 ng/mL,2.6%,43.34 ng/mL,,cross-reactivity [3]: 1.1%
"CN/C(=N\[N+](=O)[O-])NCc1cnc(Cl)s1 [Clothianidin, clothianidin]",58.3%,0.46 ng/mL,41.7%,0.86 ng/mL,5 ng/mL,20.2%,1.19 ng/mL,41.3%,1.43 ng/mL,4.9%,59.41 ng/mL,63.3%,1.80 ng/mL,0.5 ng/mL,cross-reactivity [3]: 4.1%
"CN/C(=N/CC1CCOC1)N[N+](=O)[O-] (centres unmarked) [Dinotefuran, dinotefuran]",<0.1%,>1000 ng/mL,<0.1%,>1000 ng/mL,,<0.1%,>1000 ng/mL,<0.1%,>1000 ng/mL,<0.1%,>1000 ng/mL,<0.1%,>1000 ng/mL,,CR (mAb 5C3; listed as dinotefuran): without obvious CR; CR (mAb 6F11; listed as dinotefuran): without obvious CR; CR (mAb 4B1; listed as dinotefuran): no CR; CR (mAb 1A5; listed as dinotefuran): without obvious CR
"O=[N+]([O-])NC1=NCCN1Cc1ccc(Cl)nc1 [Imidacloprid, imidacloprid]",100.0%,0.27 ng/mL,100.0%,0.36 ng/mL,5 ng/mL,100.0%,0.24 ng/mL,100.0%,0.59 ng/mL,100.0%,2.90 ng/mL,100.0%,1.14 ng/mL,0.9 ng/mL,inhibition rate [4]: > 50%; cross-reactivity (anti-imidaclothiz mAb): 91.7%
"O=[N+]([O-])/N=C1\NCCN1Cc1cnc(Cl)s1 [Imidaclothiz, imidaclothiz]",115.1%,0.23 ng/mL,119.8%,0.30 ng/mL,5 ng/mL,8.6%,2.79 ng/mL,122.9%,0.48 ng/mL,7.1%,41.09 ng/mL,126.7%,0.90 ng/mL,0.7 ng/mL,
O=[N+]([O-])/N=C1\NCOCN1Cc1cnc(Cl)s1 [N-desmethyl thiamethoxam],124.8%,0.21 ng/mL,67.8%,0.53 ng/mL,,,,,,,,,,,recognition by the antibody (6F11) (6F11-mAb): very high affinity
"CCN(Cc1ccc(Cl)nc1)/C(=C/[N+](=O)[O-])NC [Nitenpyram, nitenpyram]",4.8%,5.57 ng/mL,5.1%,7.07 ng/mL,over 100 ng/mL,0.8%,30.66 ng/mL,8.2%,7.16 ng/mL,<0.1%,>1000 ng/mL,3.7%,31.19 ng/mL,,CR (mAb 4B1; listed as nitenpyram): no CR
"N#C/N=C1\SCCN1Cc1ccc(Cl)nc1 [Thiacloprid, thiacloprid]",20.6%,1.30 ng/mL,12.5%,2.89 ng/mL,over 100 ng/mL,1.8%,13.39 ng/mL,21.2%,2.78 ng/mL,10.2%,28.37 ng/mL,2.7%,42.91 ng/mL,,
"CN1COCN(Cc2cnc(Cl)s2)/C1=N\[N+](=O)[O-] [Thiamethoxam, thiamethoxam]",<0.1%,>1000 ng/mL,<0.1%,>1000 ng/mL,,<0.1%,>1000 ng/mL,<0.1%,>1000 ng/mL,<0.1%,>1000 ng/mL,<0.1%,>1000 ng/mL,,recognition by the antibody (6F11) (6F11-mAb): cannot recognize; CR (mAb 5C3; listed as thiamethoxam): without obvious CR; CR (mAb 6F11; listed as thiamethoxam): without obvious CR; CR (mAb 4B1; listed as thiamethoxam): no CR; CR (mAb 1A5; listed as thiamethoxam): without obvious CR

# — article PMC9496258, “Trace Immunosensing of Multiple Neonicotinoid Insecticides by a Novel Broad-Specific Antibody Obtained from a Rational Screening Strategy” (Biosensors, 2022)
